Experiments:
[1] = system: recombinant NL4-3 virus (nef section replaced with Renilla luciferase gene) in MT-2 cells; assay: HIV cell culture assay (antiviral activity, luciferase readout); assay type: cell-based; details: Renilla, NL43, MT-2 cells infected for 4-5 days with recombinant NL4-3 Renilla luciferase virus, serial dilutions of compound
Summary of the method: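 EC50 was derived by median-effect curve fitting of luciferase activity. The signal comes from MT-2 cells infected for 4–5 days with 293T-produced NL4-3 reporter virus, nef partly replaced by Renilla luciferase, in the presence of serially diluted compound.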

[2] = Compound cytotoxicity, XTT-based colorimetric assay; assay type: cell-based; details: human, uninfected MT2 cells, day 4, XTT
Summary of the method: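 Run under the antiviral-assay protocol but without virus. Viability was read on day 4 and CC50 values were derived from the readout.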

## Cc1cccc(C)c1-c1ccc2c(=O)n(-c3ccc(S(=O)(=O)N4CCOCC4)cc3)c([C@H](Cc3cc(F)cc(F)c3)NC(=O)Cn3ccc(C4CC4)n3)nc2c1 [Example 49, (S)-2-(3-cyclopropyl-1H-pyrazol-1-yl)-N-(2-(3,5-difluorophenyl)-1-(7-(2,6-dimethylphenyl)-3-(4-(morpholinosulfonyl)phenyl)-4-oxo-3,4-dihydroquinazolin-2-yl)ethyl)acetamide]
[1]
  EC50: 30 nM
[2]
  CC50 at 4 day: > 1000 nM

## Cc1cc(Cl)ccc1-c1ccc2c(=O)n(-c3ccc(S(=O)(=O)N4CCOCC4)cc3)c([C@H](Cc3cc(F)cc(F)c3)NC(=O)Cn3ccc(C4CC4)n3)nc2c1 [Example 50, (S)-N-(1-(7-(4-chloro-2-methylphenyl)-3-(4-(morpholinosulfonyl)phenyl)-4-oxo-3,4-dihydroquinazolin-2-yl)-2-(3,5-difluorophenyl)ethyl)-2-(3-cyclopropyl-1H-pyrazol-1-yl)acetamide]
[1]
  EC50: 70 nM
[2]
  CC50 at 4 day: > 1000 nM

## COc1cccc(-c2ccc3c(=O)n(-c4ccc(S(=O)(=O)N5CCOCC5)cc4)c([C@H](Cc4cc(F)cc(F)c4)NC(=O)Cn4ccc(C5CC5)n4)nc3c2)n1 [Example 55, (S)-2-(3-cyclopropyl-1H-pyrazol-1-yl)-N-(2-(3,5-difluorophenyl)-1-(7-(6-methoxypyridin-2-yl)-3-(4-(morpholinosulfonyl)phenyl)-4-oxo-3,4-dihydroquinazolin-2-yl)ethyl)acetamide]
[1]
  EC50: 8.7 nM
[2]
  CC50 at 4 day: > 1000 nM

## O=C(Cn1nc(C(F)F)c2c1C(F)(F)[C@@H]1C[C@H]21)N[C@@H](Cc1cc(F)cc(F)c1)c1nc2cc(-c3ccncc3)ccc2c(=O)n1-c1ccc(S(=O)(=O)N2CCOCC2)cc1 [Example 69, 2-((3bS,4aR)-3-(difluoromethyl)-5,5-difluoro-3b,4,4a,5-tetrahydro-1H-cyclopropa[3,4]cyclopenta[1,2-c]pyrazol-1-yl)-N-((S)-2-(3,5-difluorophenyl)-1-(3-(4-(morpholinosulfonyl)phenyl)-4-oxo-7-(pyridin-4-yl)-3,4-dihydroquinazolin-2-yl)ethyl)acetamide]
[1]
  EC50: 1 nM
[2]
  CC50 at 4 day: > 1000 nM

## O=C(Cn1ccc(C2CC2)n1)N[C@@H](Cc1cc(F)cc(F)c1)c1nc2cc(-c3cccc(F)c3F)ccc2c(=O)n1-c1ccc(S(=O)(=O)N2CCOCC2)cc1 [Example 74, (S)-2-(3-cyclopropyl-1H-pyrazol-1-yl)-N-(2-(3,5-difluorophenyl)-1-(7-(2,3-difluorophenyl)-3-(4-(morpholinosulfonyl)phenyl)-4-oxo-3,4-dihydroquinazolin-2-yl)ethyl)acetamide]
[1]
  EC50: 16 nM
[2]
  CC50 at 4 day: > 1000 nM

## Cc1cccc(C)c1-c1ccc2c(=O)n(-c3ccc(S(=O)(=O)N4CCOCC4)cc3)c([C@H](Cc3cc(F)cc(F)c3)NC(=O)Cn3nc(C(F)F)c4c3C(F)(F)[C@@H]3C[C@H]43)nc2c1 [Example 77, 2-((3bS,4aR)-3-(difluoromethyl)-5,5-difluoro-3b,4,4a,5-tetrahydro-1H-cyclopropa[3,4]cyclopenta[1,2-c]pyrazol-1-yl)-N-((S)-2-(3,5-difluorophenyl)-1-(7-(2,6-dimethylphenyl)-3-(4-(morpholinosulfonyl)phenyl)-4-oxo-3,4-dihydroquinazolin-2-yl)ethyl)acetamide]
[1]
  EC50: 4.2 nM
[2]
  CC50 at 4 day: > 1000 nM

## O=C(Cn1nc(C(F)F)c2c1C(F)(F)[C@@H]1C[C@H]21)N[C@@H](Cc1cc(F)cc(F)c1)c1nc2cc(-c3ccc(Cl)cc3Cl)ccc2c(=O)n1-c1ccc(S(=O)(=O)N2CCOCC2)cc1 [Example 80, N-((S)-1-(7-(2,4-dichlorophenyl)-3-(4-(morpholinosulfonyl)phenyl)-4-oxo-3,4-dihydroquinazolin-2-yl)-2-(3,5-difluorophenyl)ethyl)-2-((3bS,4aR)-3-(difluoromethyl)-5,5-difluoro-3b,4,4a,5-tetrahydro-1H-cyclopropa[3,4]cyclopenta[1,2-c]pyrazol-1-yl)acetamide]
[1]
  EC50: 8 nM
[2]
  CC50 at 4 day: > 1000 nM

## O=C(Cn1ccc(C2CC2)n1)N[C@@H](Cc1cc(F)cc(F)c1)c1nc2cc(-c3ccc(Cl)cc3Cl)ccc2c(=O)n1-c1ccc(S(=O)(=O)N2CCOCC2)cc1 [Example 81, (S)-2-(3-cyclopropyl-1H-pyrazol-1-yl)-N-(1-(7-(2,4-dichlorophenyl)-3-(4-(morpholinosulfonyl)phenyl)-4-oxo-3,4-dihydroquinazolin-2-yl)-2-(3,5-difluorophenyl)ethyl)acetamide]
[1]
  EC50: 56 nM
[2]
  CC50 at 4 day: > 1000 nM

## COc1cccc(OC)c1-c1ccc2c(=O)n(-c3ccc(S(=O)(=O)N4CCOCC4)cc3)c([C@H](Cc3cc(F)cc(F)c3)NC(=O)Cn3nc(C(F)F)c4c3C(F)(F)[C@@H]3C[C@H]43)nc2c1 [Example 83, 2-((3bS,4aR)-3-(difluoromethyl)-5,5-difluoro-3b,4,4a,5-tetrahydro-1H-cyclopropa[3,4]cyclopenta[1,2-c]pyrazol-1-yl)-N-((S)-2-(3,5-difluorophenyl)-1-(7-(2,6-dimethoxyphenyl)-3-(4-(morpholinosulfonyl)phenyl)-4-oxo-3,4-dihydroquinazolin-2-yl)ethyl)acetamide]
[1]
  EC50: 5 nM
[2]
  CC50 at 4 day: > 1000 nM

## Cc1cc(F)ccc1-c1ccc2c(=O)n(-c3ccc(S(=O)(=O)N4CCOCC4)cc3)c([C@H](Cc3cc(F)cc(F)c3)NC(=O)Cn3ccc(C4CC4)n3)nc2c1 [Example 102, (S)-2-(3-cyclopropyl-1H-pyrazol-1-yl)-N-(2-(3,5-difluorophenyl)-1-(7-(4-fluoro-2-methylphenyl)-3-(4-(morpholinosulfonyl)phenyl)-4-oxo-3,4-dihydroquinazolin-2-yl)ethyl)acetamide]
[1]
  EC50: 48 nM
[2]
  CC50 at 4 day: > 1000 nM

## COc1ccc(-c2ccc3c(=O)n(-c4ccc(S(=O)(=O)N5CCOCC5)cc4)c([C@H](Cc4cc(F)cc(F)c4)NC(=O)Cn4nc(C(F)F)c5c4C(F)(F)[C@@H]4C[C@H]54)nc3c2)cn1 [Example 112, 2-((3bS,4aR)-3-(difluoromethyl)-5,5-difluoro-3b,4,4a,5-tetrahydro-1H-cyclopropa[3,4]cyclopenta[1,2-c]pyrazol-1-yl)-N-((S)-2-(3,5-difluorophenyl)-1-(7-(6-methoxypyridin-3-yl)-3-(4-(morpholinosulfonyl)phenyl)-4-oxo-3,4-dihydroquinazolin-2-yl)ethyl)acetamide]
[1]
  EC50: 4 nM
[2]
  CC50 at 4 day: > 1000 nM

## O=C(Cn1ccc(C2CC2)n1)N[C@@H](Cc1cc(F)cc(F)c1)c1nc2cc(-c3c(Cl)cccc3Cl)ccc2c(=O)n1-c1ccc(S(=O)(=O)N2CCOCC2)cc1 [Example 114, (S)-2-(3-cyclopropyl-1H-pyrazol-1-yl)-N-(1-(7-(2,6-dichlorophenyl)-3-(4-(morpholinosulfonyl)phenyl)-4-oxo-3,4-dihydroquinazolin-2-yl)-2-(3,5-difluorophenyl)ethyl)acetamide]
[1]
  EC50: 15 nM
[2]
  CC50 at 4 day: > 1000 nM

## Cc1cc(C(F)F)nn1CC(=O)N[C@@H](Cc1cc(F)cc(F)c1)c1nc2cc(-c3ccccc3F)ccc2c(=O)n1-c1ccc(Cl)c2c(NS(=O)(=O)C3CC3)nn(CC(F)F)c12 [Example 137, (S)-N-(1-(3-(4-chloro-3-(cyclopropanesulfonamido)-1-(2,2-difluoroethyl)-1H-indazol-7-yl)-7-(2-fluorophenyl)-4-oxo-3,4-dihydroquinazolin-2-yl)-2-(3,5-difluorophenyl)ethyl)-2-(3-(difluoromethyl)-5-methyl-1H-pyrazol-1-yl)acetamide]
[1]
  EC50: 8.4 nM
[2]
  CC50 at 4 day: > 1000 nM

## O=C(Cc1ccn(C2CC2)n1)N[C@@H](Cc1cc(F)cc(F)c1)c1nc2cc(-c3ccccc3F)ccc2c(=O)n1-c1ccc(Cl)c2c(NS(=O)(=O)C3CC3)nn(CC(F)F)c12 [Example 139, (S)-N-(1-(3-(4-chloro-3-(cyclopropanesulfonamido)-1-(2,2-difluoroethyl)-1H-indazol-7-yl)-7-(2-fluorophenyl)-4-oxo-3,4-dihydroquinazolin-2-yl)-2-(3,5-difluorophenyl)ethyl)-2-(1-cyclopropyl-1H-pyrazol-3-yl)acetamide]
[1]
  EC50: 0.57 nM
[2]
  CC50 at 4 day: > 500 nM

## CC(C)n1ccc(CC(=O)N[C@@H](Cc2cc(F)cc(F)c2)c2nc3cc(-c4ccccc4F)ccc3c(=O)n2-c2ccc(Cl)c3c(NS(=O)(=O)C4CC4)nn(CC(F)F)c23)n1 [Example 140, (S)-N-(1-(3-(4-chloro-3-(cyclopropanesulfonamido)-1-(2,2-difluoroethyl)-1H-indazol-7-yl)-7-(2-fluorophenyl)-4-oxo-3,4-dihydroquinazolin-2-yl)-2-(3,5-difluorophenyl)ethyl)-2-(1-isopropyl-1H-pyrazol-3-yl)acetamide]
[1]
  EC50: 0.35 nM
[2]
  CC50 at 4 day: > 500 nM

## Cc1cc(C)nc(-c2ccc3c(=O)n(-c4ccc(Cl)c5c(NS(C)(=O)=O)nn(C)c45)c([C@H](Cc4cc(F)cc(F)c4)NC(=O)Cn4nc(C(F)(F)F)c5c4C(F)(F)[C@@H]4C[C@H]54)nc3c2)n1 [Example 141, N-((S)-1-(3-(4-chloro-1-methyl-3-(methylsulfonamido)-1H-indazol-7-yl)-7-(4,6-dimethylpyrimidin-2-yl)-4-oxo-3,4-dihydroquinazolin-2-yl)-2-(3,5-difluorophenyl)ethyl)-2-((3bS,4aR)-5,5-difluoro-3-(trifluoromethyl)-3b,4,4a,5-tetrahydro-1H-cyclopropa[3,4]cyclopenta[1,2-c]pyrazol-1-yl)acetamide]
[1]
  EC50: 0.11 nM
[2]
  CC50 at 4 day: > 500 nM

## COc1ccccc1-c1ccc2c(=O)n(-c3ccc(S(=O)(=O)N4CCOCC4)cc3)c([C@H](Cc3cc(F)cc(F)c3)NC(=O)Cn3ccc(C4CC4)n3)nc2c1 [Example 142, (S)-2-(3-cyclopropyl-1H-pyrazol-1-yl)-N-(2-(3,5-difluorophenyl)-1-(7-(2-methoxyphenyl)-3-(4-(morpholinosulfonyl)phenyl)-4-oxo-3,4-dihydroquinazolin-2-yl)ethyl)acetamide]
[1]
  EC50: 66 nM
[2]
  CC50 at 4 day: > 1000 nM

Reference: US11505543B2, “4-oxo-3,4-dihydroquinazoline compounds as inhibitors of human immunodeficiency virus replication” (VIIV HEALTHCARE UK (NO.5) LIMITED, priority 2018, dated 2022)
